Measured values as given in the supplement of paper PMC10307832.

Tests used:
Test in all cases: relative viability (nuclei count vs DMSO), 5 days (fraction); higher = more cells survive
[1] = compound: O=C1NC(=O)[C@@H](c2cn3c4c(cccc24)CCC3)[C@@H]1c1c[nH]c2ccccc12 [Tivantinib] + CCNC(=O)c1noc(-c2cc(C(C)C)c(O)cc2O)c1-c1ccc(CN2CCOCC2)cc1 [Luminespib] (partner 0.01 µM)
In short: (§1)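 Cells from lung cancer lines were seeded into 1536-well plates and, one day later, dosed by pin tool. Treatments were either a single drug or a fixed dose of an anchor drug with five library-drug doses (not always all listed) in √10 steps. After 5 days, nuclei were stained in a one-step fixation (final 0.05% Triton X-100, 1% formaldehyde, 1 ug/ml Hoechst) and counted on 4× images, and relative viability is the treated-to-vehicle nuclei ratio, as the median of duplicate plates.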

[2] = compound: CC1(COc2ccc3c(c2)ncn3-c2ccc3cccc(N4CCC(N)CC4)c3n2)COC1 [Crenolanib] + Nc1ncn([C@H]2C[C@H](O)[C@@H](CO)O2)c(=O)n1 [Decitabine] (partner 2 µM)
In short: as §1

[3] = compound: CC1(COc2ccc3c(c2)ncn3-c2ccc3cccc(N4CCC(N)CC4)c3n2)COC1 [Crenolanib] + CC(C)C[C@H](NC(=O)[C@H](Cc1ccccc1)NC(=O)c1cnccn1)B(O)O [Bortezomib] (partner 0.002 µM)
In short: as §1

[4] = compound: O=C1NC(=O)[C@@H](c2cn3c4c(cccc24)CCC3)[C@@H]1c1c[nH]c2ccccc12 [Tivantinib] + Cc1nc(Nc2ncc(C(=O)Nc3c(C)cccc3Cl)s2)cc(N2CCN(CCO)CC2)n1 [Dasatinib] (partner 0.075 µM)
In short: as §1

Cell Line: HCC-44
- relative viability ([1]; first compound 0.01 µM): 1.13
- relative viability ([1]; first compound 0.03162 µM): 1
- relative viability ([1]; first compound 0.1 µM): 0.954
- relative viability ([1]; first compound 0.3162 µM): 0.634
- relative viability ([2]; first compound 0.01 µM): 0.933
- relative viability ([2]; first compound 0.03162 µM): 0.925
- relative viability ([2]; first compound 0.1 µM): 0.944
- relative viability ([2]; first compound 0.3162 µM): 0.972
- relative viability ([2]; first compound 1 µM): 0.845
- relative viability ([3]; first compound 0.01 µM): 0.944
- relative viability ([3]; first compound 0.03162 µM): 0.876
- relative viability ([3]; first compound 0.1 µM): 0.856
- relative viability ([3]; first compound 0.3162 µM): 0.878
- relative viability ([3]; first compound 1 µM): 0.833

Cell Line: HCC-78
- relative viability ([4]; first compound 0.01 µM): 0.416
- relative viability ([4]; first compound 0.03162 µM): 0.376
- relative viability ([4]; first compound 0.1 µM): 0.378
- relative viability ([4]; first compound 0.3162 µM): 0.377
- relative viability ([2]; first compound 0.01 µM): 0.673
- relative viability ([2]; first compound 0.03162 µM): 0.634
- relative viability ([2]; first compound 0.1 µM): 0.734
- relative viability ([2]; first compound 0.3162 µM): 0.838
- relative viability ([2]; first compound 1 µM): 0.652
- relative viability ([3]; first compound 0.01 µM): 0.309
- relative viability ([3]; first compound 0.03162 µM): 0.454
- relative viability ([3]; first compound 0.1 µM): 0.638
- relative viability ([3]; first compound 0.3162 µM): 0.499
- relative viability ([3]; first compound 1 µM): 0.438

Cell Line: HCC-366
- relative viability ([4]; first compound 0.01 µM): 0.629
- relative viability ([4]; first compound 0.03162 µM): 0.594
- relative viability ([4]; first compound 0.1 µM): 0.495
- relative viability ([4]; first compound 0.3162 µM): 0.681
- relative viability ([2]; first compound 0.01 µM): 0.33
- relative viability ([2]; first compound 0.03162 µM): 0.325
- relative viability ([2]; first compound 0.1 µM): 0.329
- relative viability ([2]; first compound 0.3162 µM): 0.374
- relative viability ([2]; first compound 1 µM): 0.334
- relative viability ([3]; first compound 0.01 µM): 1.01
- relative viability ([3]; first compound 0.03162 µM): 1.1
- relative viability ([3]; first compound 0.1 µM): 0.902
- relative viability ([3]; first compound 0.3162 µM): 1.12
- relative viability ([3]; first compound 1 µM): 0.949

Cell Line: HCC-827
- relative viability ([4]; first compound 0.01 µM): 0.237
- relative viability ([4]; first compound 0.03162 µM): 0.295
- relative viability ([4]; first compound 0.1 µM): 0.375
- relative viability ([4]; first compound 0.3162 µM): 0.131
- relative viability ([1]; first compound 0.01 µM): 0.472
- relative viability ([1]; first compound 0.03162 µM): 0.661
- relative viability ([1]; first compound 0.1 µM): 0.699
- relative viability ([1]; first compound 0.3162 µM): 0.378
- relative viability ([2]; first compound 0.01 µM): 0.332
- relative viability ([2]; first compound 0.03162 µM): 0.329
- relative viability ([2]; first compound 0.1 µM): 0.311
- relative viability ([2]; first compound 0.3162 µM): 0.308
- relative viability ([2]; first compound 1 µM): 0.348
- relative viability ([3]; first compound 0.01 µM): 1.08
- relative viability ([3]; first compound 0.03162 µM): 0.962
- relative viability ([3]; first compound 0.1 µM): 0.963
- relative viability ([3]; first compound 0.3162 µM): 1.04
- relative viability ([3]; first compound 1 µM): 0.933

Cell Line: HOP-62
- relative viability ([4]; first compound 0.01 µM): 0.711
- relative viability ([4]; first compound 0.03162 µM): 0.521
- relative viability ([4]; first compound 0.1 µM): 0.606
- relative viability ([4]; first compound 0.3162 µM): 0.739
- relative viability ([1]; first compound 0.01 µM): 0.889
- relative viability ([1]; first compound 0.03162 µM): 0.892
- relative viability ([1]; first compound 0.1 µM): 0.917
- relative viability ([1]; first compound 0.3162 µM): 0.89
- relative viability ([2]; first compound 0.01 µM): 0.222
- relative viability ([2]; first compound 0.03162 µM): 0.19
- relative viability ([2]; first compound 0.1 µM): 0.29
- relative viability ([2]; first compound 0.3162 µM): 0.205
- relative viability ([2]; first compound 1 µM): 0.234
- relative viability ([3]; first compound 0.01 µM): 1.01
- relative viability ([3]; first compound 0.03162 µM): 0.488
- relative viability ([3]; first compound 0.1 µM): 0.743
- relative viability ([3]; first compound 0.3162 µM): 0.317
- relative viability ([3]; first compound 1 µM): 0.309

Cell Line: IA-LM
- relative viability ([3]; first compound 0.01 µM): 0.806
- relative viability ([3]; first compound 0.03162 µM): 0.771
- relative viability ([3]; first compound 0.1 µM): 0.726
- relative viability ([3]; first compound 0.3162 µM): 0.949
- relative viability ([3]; first compound 1 µM): 0.978

Cell Line: LC-2-ad
- relative viability ([4]; first compound 0.01 µM): 0.554
- relative viability ([4]; first compound 0.03162 µM): 0.527
- relative viability ([4]; first compound 0.1 µM): 0.641
- relative viability ([4]; first compound 0.3162 µM): 0.477
- relative viability ([1]; first compound 0.01 µM): 0.995
- relative viability ([1]; first compound 0.03162 µM): 1.17
- relative viability ([1]; first compound 0.1 µM): 0.94
- relative viability ([1]; first compound 0.3162 µM): 0.906
- relative viability ([2]; first compound 0.01 µM): 0.833
- relative viability ([2]; first compound 0.03162 µM): 0.844
- relative viability ([2]; first compound 0.1 µM): 0.759
- relative viability ([2]; first compound 0.3162 µM): 0.818
- relative viability ([2]; first compound 1 µM): 0.78
- relative viability ([3]; first compound 0.01 µM): 1.09
- relative viability ([3]; first compound 0.03162 µM): 0.959
- relative viability ([3]; first compound 0.1 µM): 0.98
- relative viability ([3]; first compound 0.3162 µM): 1.18
- relative viability ([3]; first compound 1 µM): 0.99

Cell Line: LK-2
- relative viability ([4]; first compound 0.01 µM): 0.281
- relative viability ([4]; first compound 0.1 µM): 0.341
- relative viability ([4]; first compound 0.3162 µM): 0.301
- relative viability ([1]; first compound 0.01 µM): 0.217
- relative viability ([1]; first compound 0.1 µM): 0.208
- relative viability ([1]; first compound 0.3162 µM): 0.197
- relative viability ([2]; first compound 0.01 µM): 0.304
- relative viability ([2]; first compound 0.03162 µM): 0.203
- relative viability ([2]; first compound 0.1 µM): 0.285
- relative viability ([2]; first compound 0.3162 µM): 0.337
- relative viability ([2]; first compound 1 µM): 0.309

Cell Line: NCI-H358
- relative viability ([4]; first compound 0.01 µM): 0.128
- relative viability ([4]; first compound 0.03162 µM): 0.165
- relative viability ([4]; first compound 0.1 µM): 0.143
- relative viability ([4]; first compound 0.3162 µM): 0.109
- relative viability ([1]; first compound 0.01 µM): 0.323
- relative viability ([1]; first compound 0.03162 µM): 0.332
- relative viability ([1]; first compound 0.1 µM): 0.377
- relative viability ([1]; first compound 0.3162 µM): 0.157
- relative viability ([2]; first compound 0.01 µM): 0.17
- relative viability ([2]; first compound 0.03162 µM): 0.194
- relative viability ([2]; first compound 0.1 µM): 0.233
- relative viability ([2]; first compound 0.3162 µM): 0.21
- relative viability ([2]; first compound 1 µM): 0.188

Cell Line: NCI-H522
- relative viability ([4]; first compound 0.01 µM): 0.902
- relative viability ([4]; first compound 0.03162 µM): 0.712
- relative viability ([4]; first compound 0.1 µM): 0.831
- relative viability ([4]; first compound 0.3162 µM): 0.864
- relative viability ([1]; first compound 0.01 µM): 1.33
- relative viability ([1]; first compound 0.03162 µM): 0.989
- relative viability ([1]; first compound 0.1 µM): 0.93
- relative viability ([1]; first compound 0.3162 µM): 0.685
- relative viability ([2]; first compound 0.01 µM): 0.668
- relative viability ([2]; first compound 0.03162 µM): 0.63
- relative viability ([2]; first compound 0.1 µM): 0.665
- relative viability ([2]; first compound 0.3162 µM): 0.64
- relative viability ([2]; first compound 1 µM): 0.607
